Assay results taken from patent US20160160189A1, “Truncated Constructs of RIPK3 and Related Uses” (ST. JUDE CHILDREN'S RESEARCH HOSPITAL, priority 2013, published 2016).
Peptide text beside a SMILES is read from it. * marks the point of attachment. Cbz = O=C(OCc1ccccc1)*; CH2F = FC*

Tests used:
[1] = test system: NIH-3T3 cells stably expressing RIPK3-1xFv; experiment: TNF-induced necroptosis, IncuCyte imaging; format: cell-based, murine; conditions: recombinant TNF with zVAD; Nec1 30 μM, TNFR1-Fc 200 ng/ml
Protocol: Expression of RIPK3-1xFv sensitized these cells to necroptosis induced by the combination of TNF and a caspase inhibitor (zVAD) in a manner analogous to that observed in Jax cells, a murine fibroblast line that expresses endogenous RIPK3. See, FIG. 13C. […]
Resulting images were analyzed using the software package supplied with the IncuCyte imager, which allows precise analysis of the number of Sytox Green or Yoyo-3 positive cells present in each image. For each experiment, a minimum of three separate wells were treated with each experimental condition, and a minimum of 4 image fields were assessed per well. Percent cell death was calculated by treating a minimum of three distinct wells in each experiment with 100 nM of the cell permeable fluorescent dye Syto Green (S7559), which allows quantification of the total number of cells present in each field. […]

[2] = test system: Cells expressing RIPK3ΔC-FKBPx2; experiment: Homodimerizer-induced truncated RIPK3 necrosis, PI uptake; format: cell-based; conditions: homodimerizer 1-100 nM, PI uptake at 3 hrs
Protocol: (§1) FIG. 6 provides a schematic for inducible RIPK-necrosis. Two systems for inducible RIPK-necrosis. […] Cell death in cells expressing RIPK1-FRB/RIPK3-FKBP and treated with heterodimerizer, and death was detected with annexin V-FITC. Death was inhibited by necrostatin-1 (not shown) (FIG. 6B). Cells expressing RIPK3ΔC-FKBPx2, treated with homodimerizer (1-100 nM); death was detected at 3 hrs by PI uptake. No effect of zVAD-fmk or necrostatin was observed (FIG. 6B).
(§2) An inducible dimer system has been employed to trigger homodimerization of caspase-8 in cells (27). The data provided herein support methods to induce RIPK-dependent necrosis by related approaches (FIG. 6A). Heterodimerization of RIPK1 and RIPK3 results in necrosis (see FIG. 6B) which is enhanced by inhibition of caspases and blocked by inhibition of RIPK1 (with nec1, data not shown). In contrast, truncated RIPK3 (lacking the RHIM domain for interaction with RIPK1) can only be oligomerized when FKBP domains (e.g., for example, two domains) that allow multiple monomers to be brought together by the dimerizing agent. Addition of the homodimerization agent to cells expressing this construct induces extremely rapid necrosis that that depends on the kinase activity of RIPK3, but is not affected by inhibition of caspases or nec1 treatment (FIG. 6C).

[3] = test system: NIH-3T3 cells expressing RIPK3^ΔC-2xFv; experiment: AP1-induced RIPK3 oligomerization cell death, IncuCyte imaging; format: cell-based, murine; conditions: zVAD 50 μM, Nec1 30 μM
Description: (§3) Consequently, two Fv domains were attached to the C-terminus of RIPK3, creating a RIPK3-2xFv construct, with the goal of promoting AP1-induced crosslinking and oligomerization independent of the RHIM domain. See, FIG. 12A. […] Compare, FIGS. 16A and 15A, respectively. […] Cells expressing this RHIM-deficient RIPK3^ΔC-2xFv construct were nonresponsive to TNF+zVAD, previously reported to be dependent on RIPK1 RHIM/RIPK3 RHIM interactions. See, FIG. 13G. […] See, FIG. 16C and FIG. 16D, respectively. […] See, FIG. 16E. […] See, FIG. 16F.
(§4) Cell death assays were carried out using a 2-color IncuCyte Zoom in-incubator imaging system (Essen Biosciences.) Briefly, this system allows fully automated imaging of cells at set intervals in phase contrast as well as both red and green fluorescent channels. Cell death assays were carried out by treating cells with death-inducing compounds in 24 well tissue culture vessels (100,000 cells/well), in the presence of 100 nM of the cell-impermeable DNA binding fluorescent dyes Sytox Green (Life Technologies 57020) or Yoyo-3 (Y3606), which are excluded from healthy cells but rapidly enter dying cells upon membrane permeabilization, in a manner analogous to propidium iodide.
(§5) Resulting images were analyzed using the software package supplied with the IncuCyte imager, which allows precise analysis of the number of Sytox Green or Yoyo-3 positive cells present in each image. For each experiment, a minimum of three separate wells were treated with each experimental condition, and a minimum of 4 image fields were assessed per well. Percent cell death was calculated by treating a minimum of three distinct wells in each experiment with 100 nM of the cell permeable fluorescent dye Syto Green (S7559), which allows quantification of the total number of cells present in each field. Dead cell events acquired via Sytox Green or Yoyo-3 staining were divided by this total cell number to yield percent cell death at each timepoint. Error bars represent standard deviation from the mean of a minimum of three independent wells. Each result depicted is representative of at least 4 distinct experiments, each of which contained at least 3 technical replicates.

[4] = test system: NIH-3T3 cells expressing RIPK3-2xFv; experiment: as above; format: cell-based, murine; conditions: AP1; zVAD 50 μM, Nec1 30 μM
Description: as §3, §4, §5

[5] = test system: cells expressing RIPK1-FRB/RIPK3-FKBP; experiment: Heterodimerizer-induced RIPK1/RIPK3 necrosis, annexin V-FITC; format: cell-based; conditions: data not shown
Protocol: as §1, §2

[6] = test system: EμMyc+p53^ΔPP/wt tumor-bearing animals; format: in vivo, mice; conditions: 200 μg zVAD-fmk with 10 μg anti-CD95, intravenously once/day for 5 days
Protocol: EμMyc+p53^ΔPP/wt tumor-bearing animals were injected intravenously once/day for 5 days starting at P35 with 10 μg of the antagonist anti-CD95 Jot antibody and 200 μg of zVAD-fmk or vehicle control. Tumor size was monitored by ultrasound of the thymus, where volume was calculated from 3D reconstructions of the scanned tumors.
In a pilot experiment, mice with detectable tumors at 5 weeks (determined by ultrasound, and characteristic of this lymphoma) were given a short course (5 days) of agonistic anti-CD95 (Jo2) and zVAD-fmk (FIG. 11). […] Controls using zVAD-fmk alone are also included.

## CN1C(=O)C(Cc2c[nH]c3ccccc23)NC1=S (centres unmarked) [necrostatin-1, Necrostatin-1]
[1]
  effect on TNF-induced necroptosis: blocks
[2]
  effect on homodimerizer-induced death: No effect
[2]; listed as nec1
  effect on homodimerizer-induced death: not affected
[3]
  effect of inhibitor on magnitude or kinetics of cell death: did not alter magnitude or kinetics of cell death
[4]
  effect of inhibitor on magnitude or kinetics of cell death: did not alter magnitude or kinetics of cell death
[5]
  effect on heterodimerizer-induced death: inhibited
[5]; listed as nec1
  effect on heterodimerizer-induced death: blocked

## COC(=O)C[C@H](NC(=O)[C@H](C)NC(=O)[C@@H](NC(=O)OCc1ccccc1)C(C)C)C(=O)CF [zVAD] (Cbz-Val-Ala-Asp(OMe)-CH2F)
[2]
  effect on homodimerizer-induced death: No effect
[3]
  effect of inhibitor on magnitude or kinetics of cell death: did not alter magnitude or kinetics of cell death
[4]
  effect of inhibitor on magnitude or kinetics of cell death: did not alter magnitude or kinetics of cell death
[6]
  protection from the lethal effects of anti-CD95 in vivo: completely protected
